Test results published in patent publication US20240335395A1, “COMPOSITIONS AND METHODS FOR PREVENTING AND/OR TREATING DISEASE ASSOCIATED WITH IL-23 EXPRESSION” (ALLSPIM, priority 2021, published 2024).

Columns and labels:
[1] = system: IL-1β, IL6 and TNFalpha; test: Endometriosis mouse model, cytokines in cell-free peritoneal lavage (ELISA); type: in vivo; conditions: 50 mg/kg/day, 5 times a week, 6 weeks
Procedure: Experimental design. Balb/C female mice (10 weeks old) were habituated for 3 days to take a jelly containing (group EDT+2,4D) or not (groups No EDT and EDT+Vehicle) the compound. Surgical implantation of endometrial tissue from syngenic female in peritoneum, was performed at day 0 for groups EDT+Vehicle and EDT+2,4D. […] The vehicle or treatment was then given 5 times a week (50 mg/kg/day) during 6 weeks. Mice were then sacrificed and the peritoneal inflammation was assessed. All the details of the protocol are depicted in FIG. 27. Cytokine measurement in cell-free peritoneal lavage. After mice were euthanized, 5 mL of PBS was injected into the peritoneal cavity and the diluted peritoneal fluid containing the cells was then retrieved. […] Cytokine concentration was assessed by ELISA kit in the peritoneal fluid (ThermoFisher, Mouse IL-1β, IL6 and TNFalpha Uncoated ELISA). […] The optical density was read with the Clariostar Plus Microplate Reader (BMG LABTECH), through the Clario software. Concentrations were calculated from a standard curve according to the manufacturer's protocol. Phenotypic study of immune cells from the peritoneal cavity assessed by flow cytometry. The pelleted peritoneal cells were resuspended in PBS-2% FBS and counted. […] All data were collected on LSR Fortessa flow cytometer (BD Bioscience, USA) and analyzed with FlowJo software. […]

[2] = system: IL-17/IL-23 and TNF signaling pathway-associated cytokine genes and chemokine genes; test: Transcription of IL-17/IL-23 and TNF signature genes in LPS-stimulated THP-1 cells (qPCR); type: cell-based, human; conditions: 2 h; 2,4-D 5-20 μM, DEX 20-80 ng/ml
Procedure: Sample Collection and Preparation. THP-1 cells, a human leukemia monocyte-derived cell line, have been widely used as a model to study the modulation of the immune response and the function of monocytes and monocyte-derived macrophages. Here, lipopolysaccharide (LPS)-stimulated THP-1 cells were used as a model to study the cytokine storm in vitro (Chanput et al., 2014). THP-1 cells (purchased from American Type Culture Collection, Rockville, MD) were grown in RPMI 1640 culture medium (Gibco) supplemented with 10% fetal bovine serum (FBS) (Gibco, UK), 0.05 mM 2-mercaptoethanol, and 1% penicillin/streptomycin (Invitrogen) at 37° C. in 5% CO2 in a humidified incubator. Cultured cells were plated into culture plates in appropriate volumes with a cell density of 5×10^5 cells/ml. 2,4-D was purchased from Wuhan ChemFaces Biochemical Co., Ltd (Hubei, China) and tested for cytotoxicity in THP-1 cells overnight using a commercial MTT Cell Proliferation and Cytotoxicity Assay Kit (Beyotime, Shanghai, China). […]
Real-Time Quantitative PCR. Real-time quantitative PCR was performed in triplicate using the TB Green qPCR master mix (Takara Biomedical Technology Co., Ltd, Dalian, China) on an ABI 7500 Real-Time PCR System (Thermo, USA). […] The ΔΔCT method was used to quantify relative mRNA levels as described above in Example 1 (Applied Biosystems). Data are expressed as mean±SD. […]

COc1cc(O)c(OC)c(O)c1C(=O)/C=C/c1ccccc1 [2,4-D, 2′,4′-dihydroxy-3′,6′-dimethoxychalcone]
concentration of IL1-β, IL-6 and TNF-α in peritoneal lavage [1]: tended to normalize | suppression of transcription of IL-17/IL-23 and TNF signatures [2]: 63-143 fold
